Patent publication US7501410B2, “Methods of inhibiting BTK and SYK protein kinases” (Roche Palo Alto LLC, priority 2006, dated 2009)
“And” between values parts separate entries of the source, which are not always exact repeats. Identical values can stand only once.

What follows are compounds tested against T1, Spleen Tyrosine Kinase (SYK) aa 360-635 (Homo sapiens, UniProt P43405) (assay: Determination of IC50 of Spleen Tyrosine Kinase (SYK) inhibition, 33P kinase assay). Settings: recombinant human SYK360-635, 20 μM ATP; read-out: IC50 (μM) SYK Assay.
T1 construct: truncated construct of Spleen Tyrosine Kinase aa 360-635; made in house
Type: biochemical
Description: Determination of IC50 of Spleen Tyrosine Kinase (SYK) Inhibition
The SYK kinase assay is a standard kinase assay adapted to a 96 well plate format. This assay is performed in 96-well format for IC50 determination with 8 samples which represented 10 half log dilutions and a 40 μL reaction volume. The assay measures the incorporation of radiolabeled ^33P γATP into an N-terminally biotinylated peptide substrate, derived from naturally occurring phosphoacceptor consensus sequence (Biotin-11aa DY*E). Phosphorylated products were detected upon termination of reactions with EDTA and the addition of Streptavidin coated beads. • Assay plates: 96-well MultiScreen 0.65 um filter plates (Millipore Cat. No.: MADVNOB10) • Streptavidin coated beads: Streptavidin Sepharose TM, suspension 5.0 mL, in 50 mM EDTA/PBS diluted (1:100), (Amersham, Cat. No.: 17-5113-01) • Compounds: 10 mM in 100% dimethylsulfoxide (DMSO), final conc.: compound 0.003-100 uM in 10% DMSO • Enzyme: SYK RPA purified, truncated construct of Spleen Tyrosine Kinase aa 360-635, stock solution 1 mg/mL, MW: 31.2 KDa, final conc.:0.0005 μM. • Peptide 1: biotinylated peptide is derived from a naturally occurring phosphor-acceptor consensus sequence (Biotin-[…]), special order from QCB, stock solution 20 mM, final conc.: 5.0 μM. • ATP: Adenosine-5′-triphosphate 20 mM, (ROCHE Cat. No.:93202720), final concentration: 20 μM • Buffer: HEPES: 2-Hydroxyethyl piperazine-2-ethanesulfonic acid (Sigma, Cat. No.: H-3375) final concentration: 50 mM HEPES pH7.5 • BSA: Bovine Serum Albumin Fraction V, fatty acid free (Roche Diagnostics GmbH, Cat. No. 9100221) diluted to a final concentration of 0.1% • EDTA: EDTA stock solution 500 mM, (GIBCO, Cat. No.: 15575-038) final concentration: 0.1 mM • DTT: 1,4-Dithiothreitol (Roche Diagnostics GmbH, Cat. No.: 197777), final conc.: 1 mM • MgCl2×6H2O: MERCK, Cat. No.: 105833.1000, final concentration: 10 mM • Assay Dilution Buffer (ADB): 50 mM HEPES, 0.1 mM EGTA, 0.1 mM Na Vanadate, 0.1 mM β-glycerophosphate, 10 mM MgCl2, 1 mM DTT, 0,1% BSA, pH 7.5 • Bead wash buffer: 10 g/L PBS (Phosphate buffered saline) with 2M NaCl+1% phosphoric acid Experimental Method:
In 40 μL volume, 26 μL of ADB diluted, purified recombinant human SYK360-635 [0.5 nM] was mixed with 4 μL of 10× concentrations of the test compounds, [usually 100 μM-0.003 μM] in [10%] DMSO and the mixture was incubated for 10 min at RT.
The kinase reaction was initiated by the addition of 10 μL 4× substrate cocktail containing the DYE peptide substrate [0 or 5 μM], ATP [20 μM] and […] [2 μCi/rxn]. After incubation at 30° C. for 15 min, the reaction was terminated by the transfer of 25 μL of the reaction sample to a 96 well 0.65 um Millipore MADVNOB membrane/plate containing 200 μL 5 mM EDTA and 20% Streptavidine coated beads in PBS.
The unbound radionucleotides were washed under vacuum with 3×250 μL 2M NaCl; 2×250 μL 2M NaCl+1% phosphoric acid; 1×250 μL H2O. After the last wash membrane/plates were transferred to an adaptor plate, heat dried for 15 min at 60° C., and 50 μL scintillation cocktail was added to each well and 4 h later the amount of radioactivity was counted in a top counter.
The IC50 was calculated using a non-linear curve fit with XLfit software (ID Business Solution Ltd., Guilford, Surrey, UK). […] Representative results are in Table 1.

| IC50 | SMILES |
| --- | --- |
| 0.565 µM and 2.31 µM and 0.526 µM | Cc1cc(Nc2nn(C(C)C)c(=O)c3cc(N4CCOCC4)ccc23)n[nH]1 [Example F-1, 2-Isopropyl-4-(5-methyl-1H-pyrazol-3-ylamino)-7-morpholino-2H-phthalazin-1-one] |
| 0.37 µM and 0.7 µM and 0.536 µM | Cc1cc(Nc2nn(C(C)C)c(=O)c3cc(N4CCN(C)CC4)ccc23)[nH]n1 [Example F-5, 2-Isopropyl-7-(4-methyl-piperazin-1-yl)-4-(5-methyl-2H-pyrazol-3-ylamino)-2H-phthalazin-1-one] |
| 1.86 µM | Cc1cc(Nc2nn(C(C)C)c(=O)c3cc(OCCN(C)C)ccc23)n[nH]1 [Example ZD-5, 7-(2-Dimethylamino-ethoxy)-2-isopropyl-4-(5-methyl-1H-pyrazol-3-ylamino)-2H-phthalazin-1-one] |
